Laboratory results taken from patent US4542021A, “Antitumor compositions for non-injection administration” (Yamasa Shoyu Kabushiki Kaisha, priority 1978, dated 1985).

What was measured:
[1] = tested on: L1210 leukemia; assay: Therapeutic test on L1210 leukemia (oral, once a day); assay type: in vivo, BDF1 mice; conditions: Mus musculus, oral, read-out: % ILS (increase in life span); for ILS at 100 mg/kg/day / ILS at 200 mg/kg/day / ILS at 400 mg/kg/day: L1210, 720 h, > means some mice survived the test period (30 days); for ILS at 6.25 mg/kg/day / ILS at 12.5 mg/kg/day / ILS at 25 mg/kg/day / ILS at 50 mg/kg/day: L1210
Procedure: The L1210 leukemic cell suspension (1×10^5 cells/0.2 ml) was implanted intraperitoneally in BDF1 mice (males, 18 to 22 g, females, 16 to 20 g) (7 mice per group). From 24 hours after the implantation to the 5th day thereafter, the predetermined doses of the compounds to be tested were orally administered to the mice consecutively once a day. The compounds to be tested were dissolved or suspended in a phosphate-bufferedsalt solution (PBS) containing 0.5% carboxymethylcellulose, and given at a dose rate of 0.1 ml per 10 g of each mouse's body weight. To a control group, only the same solvent as used for the dissolution of the compounds to be tested was administered in the same way. The mean survival times (MST) for each group were calculated, and the corresponding increase in life span (%ILS) was obtained in accordance with the following formula, the results of which are shown in Table 1. [formula]

[2] = tested on: B16 melanoma; assay: Effectiveness against B16 melanoma (oral, 3 times a week); assay type: in vivo, BDF1 mice; set-up: Mean survival time (MST ± SE): unit not given here
Procedure: The B16 melanoma cells (1×10^6 cells) were implanted to the right side-abdominal hypoderms of BDF1 mice (male, 18 to 22 g). From the 13th day after the implantation to death the compounds to be tested were administered orally 3 times a week. The compounds to be tested were dissolved in a phosphate-buffered salt solution (PBS) containing 0.5% carboxymethyl-cellulose to a suitable concentration, and given to the mice at a dose rate of 0.1 ml per 10 g of each mouse's body weight. The increases in life span (%ILS) were calculated in accordance with the same formula as described in Test Example 1.

[3] = tested on: L1210 leukemic cells; assay: Experimental tumor proliferation model in the lymph nodes, once a day for 6 days; assay type: in vivo, BDF1 mice
Procedure: (§1) L1210 leukemic cells (1×10^6 cells/0.05 ml) were implanted to the right inner-thigh hypoderms of BDF1 mice (males, 18 to 22 g). From one day after the transplantation, the compounds to be tested were administered intraperitoneally or orally to the mice once a day consecutively for 6 days. The compounds being tested were dissolved in a phosphate-buffered salt solution (PBS) containing 0.5% carboxymethylcellulose to a suitable concentration, and administered to the mice at a dose rate of 0.1 ml per 10 g of each mouse's body weight. The increases in life span (%ILS) were calculated similarly as in Test Example 1.

[4] = tested on: L1210 leukemic cells; assay: Experimental tumor proliferation model in the lymph nodes, single administration on sixth day; assay type: in vivo, BDF1 mice; conditions: po, once on sixth day
Procedure: as §1
Furthermore, in a similar manner, each of the test compounds was administered only once on the sixth day after implantation.

[5] = Acute toxicity test, oral (Test Example 4); set-up: species or system ICR-JCL mice; conditions: mouse, in vivo, male mice, observed 7 days, reliability limit 95% in parentheses
Procedure: The C18-ara-CMP ester was dissolved in saline containing 0.5% carboxymethylcellulose, and given orally to ICR-JCL mice (males, 24 to 26 g) at a dose rate of 0.2 ml per 10 g of each mouse's body weight. […] The LD50 value was;

[6] = Acute toxicity test, intraperitoneal (Test Example 4); set-up: species or system ICR-JCL mice; conditions: mouse, in vivo; ip, male mice, 7th day; reliability limit 95% in parentheses
Procedure: The C18-ara-CMP ester dissolved in saline was administered intraperitoneally to ICR-JCL mice (males, 24 to 26 g) at a dose rate of 0.2 ml per 10 g of each mouse's body weight. The LD50 value obtained on the 7th day was;

[7] = Acute toxicity test, oral (Test Example 5); set-up: species or system ICR-JCL mice; conditions: mouse, in vivo, neutralized ester, male mice, 14th day
Procedure: An ara-CMP ester was neutralized and dissolved in saline containing 0.5% of carboxymethylcellulose, and the resulting solution was orally administered to ICR-JCL mice (males, 24 to 26 g) in a dose of 0.2 ml per 10 g of each mouse's body weight.

CCCCCCCCCCCCCCCCCCOP(=O)(O)OC[C@H]1O[C@@H](n2ccc(N)nc2=O)[C@@H](O)[C@@H]1O [C18-ara-CMP ester, ara-CMP-stearyl ester]
ILS at 100 mg/kg/day [1]: > 200%
ILS at 200 mg/kg/day [1]: 53%
ILS at 400 mg/kg/day [1]: -7%
ILS at 6.25 mg/kg/day [1]: 46%
ILS at 12.5 mg/kg/day [1]: 52%
ILS at 25 mg/kg/day [1]: 69%
ILS at 50 mg/kg/day [1]: 114%
Mean survival time (MST ± SE) ([2]; 50 mg/kg): 30.0 ± 1.30
Increase in life span (% ILS) ([2]; 50 mg/kg, * level of significance at 0.05% or lower): 36%
Increase in life span (% ILS) ([2]; 100 mg/kg): 17%
Mean survival time (MST ± SE) ([2]; 100 mg/kg): 25.8 ± 1.98
Increase in life span (% ILS) ([2]; 200 mg/kg): 22%
Mean survival time (MST ± SE) ([2]; 200 mg/kg): 26.8 ± 2.20
Increase in life span (% ILS) ([3]; ip, 25 mg/kg/day): 152%
Mean survival time (MST ± SE) ([3]; ip, 25 mg/kg/day): 17.4 ± 0.40
Increase in life span (% ILS) ([3]; ip, 50 mg/kg/day): 193%
Mean survival time (MST ± SE) ([3]; ip, 50 mg/kg/day): 20.2 ± 0.53
Increase in life span (% ILS) ([3]; po, 50 mg/kg/day): 165%
Mean survival time (MST ± SE) ([3]; po, 50 mg/kg/day): 18.3 ± 0.62
Increase in life span (% ILS) ([3]; po, 100 mg/kg/day): 188%
Mean survival time (MST ± SE) ([3]; po, 100 mg/kg/day): 19.9 ± 0.48
Increase in life span (% ILS) ([4]; 250 mg/kg): 92%
Mean survival time (MST ± SE) ([4]; 250 mg/kg): 14.0 ± 0.53
Increase in life span (% ILS) ([4]; 500 mg/kg): 137%
Mean survival time (MST ± SE) ([4]; 500 mg/kg): 17.3 ± 0.49
LD50 at 168 h [5]: 1400 mg/kg
LD50 at 168 h [6]: 137 mg/kg
LD50 at 336 h [7]: 1050 mg/kg

CCCCCCCCCCCCCCOP(=O)(O)OC[C@H]1O[C@@H](n2ccc(N)nc2=O)[C@@H](O)[C@@H]1O [C14-ara-CMP ester, ara-CMP-tetradecyl ester]
ILS at 100 mg/kg/day [1]: 88%
ILS at 200 mg/kg/day [1]: 105%
ILS at 400 mg/kg/day [1]: 134%
ILS at 50 mg/kg/day [1]: 62%

CCCCCCCC/C=C\CCCCCCCCOP(=O)(O)OC[C@H]1O[C@@H](n2ccc(N)nc2=O)[C@@H](O)[C@@H]1O [C18-1-ara-CMP ester, ara-CMP-oleyl ester]
ILS at 100 mg/kg/day [1]: 109%
ILS at 200 mg/kg/day [1]: 120%
ILS at 400 mg/kg/day [1]: > 159%
ILS at 6.25 mg/kg/day [1]: 20%
ILS at 12.5 mg/kg/day [1]: 39%
ILS at 25 mg/kg/day [1]: 54%
ILS at 50 mg/kg/day [1]: 81%
LD50 at 336 h [7]: 3750 mg/kg

CCCCCCCCCCCCCCCCCCCCCCCCCCOP(=O)(O)OC[C@H]1O[C@@H](n2ccc(N)nc2=O)[C@@H](O)[C@@H]1O [ara-CMP hexacosyl ester, reference compound]
ILS at 100 mg/kg/day [1]: 27%
ILS at 200 mg/kg/day [1]: 52%
ILS at 400 mg/kg/day [1]: 86%
ILS at 25 mg/kg/day [1]: 14%
ILS at 50 mg/kg/day [1]: 23%

CCCCCCCCCCCOP(=O)(O)OC[C@H]1O[C@@H](n2ccc(N)nc2=O)[C@@H](O)[C@@H]1O [ara-CMP undecyl ester, reference compound]
ILS at 100 mg/kg/day [1]: 31%
ILS at 200 mg/kg/day [1]: 78%
ILS at 25 mg/kg/day [1]: 12%
ILS at 50 mg/kg/day [1]: 27%

CCCCCCCCCCCCCCCCOP(=O)(O)OC[C@H]1O[C@@H](n2ccc(N)nc2=O)[C@@H](O)[C@@H]1O [C16-ara-CMP ester, ara-CMP-cetyl ester]
ILS at 100 mg/kg/day [1]: 88%
ILS at 200 mg/kg/day [1]: 137%
ILS at 400 mg/kg/day [1]: > 227%
ILS at 12.5 mg/kg/day [1]: 19%
ILS at 25 mg/kg/day [1]: 30%
ILS at 50 mg/kg/day [1]: 73%
LD50 at 336 h [7]: 2190 mg/kg

CCCCCCCCCCCCCCCCCCCCCCCOP(=O)(O)OC[C@H]1O[C@@H](n2ccc(N)nc2=O)[C@@H](O)[C@@H]1O [C23-ara-CMP ester, ara-CMP-tricosyl ester]
ILS at 100 mg/kg/day [1]: 81%
ILS at 200 mg/kg/day [1]: 110%
ILS at 400 mg/kg/day [1]: 128%
ILS at 12.5 mg/kg/day [1]: 29%
ILS at 25 mg/kg/day [1]: 51%
ILS at 50 mg/kg/day [1]: 65%
